The values that follow come from patent US12630563B2, “Macrocyclic RIP2-kinase inhibitors” (Oncodesign S.A., priority 2020, dated 2026).

The structures appear in SMILES notation. A value given as a limit tells only on which side of the number the result lay.

For this experiment, the target named is T1, recombinant hRIPK2 protein (kinase domain aa 1-299-His-tagged) (Homo sapiens, UniProt O43353).
T1 construct: kinase domain aa 1-299-His-tagged; purchased Life Technologies PR7829A
T1 sequence (O43353 1-299): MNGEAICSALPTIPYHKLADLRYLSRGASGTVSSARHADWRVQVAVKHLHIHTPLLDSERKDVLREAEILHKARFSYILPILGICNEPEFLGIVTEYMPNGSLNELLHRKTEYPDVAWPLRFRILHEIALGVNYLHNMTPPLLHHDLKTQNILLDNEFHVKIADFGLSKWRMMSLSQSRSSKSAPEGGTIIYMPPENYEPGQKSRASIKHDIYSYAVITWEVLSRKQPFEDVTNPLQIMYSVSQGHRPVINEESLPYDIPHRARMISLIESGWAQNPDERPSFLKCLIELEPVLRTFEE
Kind of experiment: RIPK2 AlphaLISA assay (displacement of bead-bound CZC-8004 from hRIPK2). The experiment is classed as binding. The following applies: recombinant hRIPK2 kinase domain 10 nM, 2 h at 23° C. The source says: RIPK2 AlphaLISA® Assay (Amplified Luminescent Proximity Homogeneous Assay)
A non-specific kinase inhibitor (CZC-8004 Cayman #916603-07-1) bound to an acceptor bead (#6772001 PerkinElmer) was mixed to the recombinant hRIPK2 protein (kinase domain aa 1-299-His-tagged—Life Technologies PR7829A) and a Ni2+-tagged donor beads (#AS101D PerkinElmer). In the presence of an inhibitor, the compound beads displacement from hRIPK2 was followed by signal loss. In a 384-well ProxiPlate@ (Perkin Elmer, 6008280) add:
2 μL RIPK2 inhibitor (in DMSO 0.8%).
2 μL human recombinant RIPK2 (10 nM diluted in AlphaLISA buffer 1×).
4 μL Mix of […] 1/1000 in AlphaLISA buffer 1×.
Homogenize using a microtiter plate shaker and incubate for 2 h at 23° C.
Read using EnVision®-Alpha Reader (PerkinElmer) according to manufacturer specifications.
A general note: Alpha assays give light when donor and acceptor beads are brought close together.
For orientation: IC50 means the concentration at which inhibition is half-maximal. `[2H]C([2H])([2H])O[C@@H]1C[C@H]2COc3ccn4ncc(c4n3)-c3cc(cc(OC)c3)NCCN2C1=O` [Example 37, (12R,14S)-12-(2H3)methoxy-4-methoxy-16-oxa-7,10,20,21,24-pentaazapentacyclo[15.5.2.1^2,6.0^10,^14.0^20,^23]pentacosa-1(23),2,4,6(25),17(24),18,21-heptaen-11-one]: the IC50 was below 10 nM.

On to `C#Cc1cc2cc(c1)-c1cnn3cc(OC)c(nc13)OC[C@@H]1C[C@@H](OCCOC)C(=O)N1CCN2` [Example 146, (12R,14S)-4-ethynyl-18-methoxy-12-(2-methoxyethoxy)-16-oxa-7,10,20,21,24-pentaazapentacyclo[15.5.2.1^2,6.0^1°,^14.0^2°,^23]pentacosa-1(23),2,4,6(25),17(24),18,21-heptaen-11-one], for which the IC50 was below 10 nM.

Take `CO[C@@H]1C[C@H]2COc3ccn4ncc(c4n3)-c3cc(C#N)cc(c3)NCCN2C1=O` [Example 12, (12R,14S)-12-methoxy-11-oxo-16-oxa-7,10,20,21,24-pentaazapentacyclo[15.5.2.1^2,6.0^10,^14.0^20,23]pentacosa-1(23),2,4,6(25),17(24),18,21-heptaene-4-carbonitrile]: the IC50 is below 10 nM. In the case of `CO[C@@H]1C[C@H]2COc3nc4c(cnn4cc3C)-c3cc(cc(-n4cccn4)c3)NCCN2C1=O` [Example 42, (12R,14S)-12-methoxy-18-methyl-4-(1H-pyrazol-1-yl)-16-oxa-7,10,20,21,24-pentaazapentacyclo[15.5.2.1^2,6.0^10,^14.0^20,^23]pentacosa-1(23),2(25),3,5,17(24),18,21-heptaen-11-one] it was below 10 nM; in that of `COCCO[C@@H]1C[C@H]2COc3nc4c(cnn4cc3OC3CC4(COC4)C3)-c3cc(cc(OC)c3)NCCN2C1=O` [Example 136, (12R,14S)-4-methoxy-12-(2-methoxyethoxy)-18-{2-oxaspiro[3.3]heptan-6-yloxy}-16-oxa-7,10,20,21,24-pentaazapentacyclo[15.5.2. 1^2,6.0^10,^14.0^20,^23]pentacosa-1(23),2,4,6(25),17(24),18,21-heptaen-11-one], below 10 nM; in that of `COCc1cc2cc(c1)-c1cnn3cc(C)c(nc13)OC[C@@H]1CC(OC)C(=O)N1CCN2` (single isomer, unassigned) [Example 65, (12R or S,14S)-12-methoxy-4-(methoxymethyl)-18-methyl-16-oxa-7,10,20,21,24-pentaazapenta cyclo[15.5.2.1^2,6.0^10,14.0^20,23]pentacosa-1(23),2,4,6(25),17(24), 18,21-heptaen-11-one], below 10 nM.

On to `COCCO[C@@H]1C[C@H]2COc3nc4c(cnn4cc3OC)-c3cc(cc(C(C)=O)c3)NCCN2C1=O` [Example 99, (12R,14S)-4-acetyl-18-methoxy-12-(2-methoxyethoxy)-16-oxa-7,10,20,21,24-pentaazapentacyclo[15.5.2.1^2,6.0^10,^14.0^20,^23]pentacosa-1(23),2(25),3,5,17(24),18,21-heptaen-11-one], for which the IC50 is below 10 nM. With `COCCO[C@@H]1C[C@H]2COc3nc4c(cnn4cc3OCC3CC3)-c3cc(cc(OC)c3)NCCN2C1=O` [Example 123, (12R,14S)-18-(cyclopropylmethoxy)-4-methoxy-12-(2-methoxyethoxy)-16-oxa-7,10,20,21,24-pentaazapentacyclo[15.5.2. 1^2,6.0^10,^14.0^20,^23]pentacosa-1(23),2(25),3,5,17(24),18,21-heptaen-11-one], the IC50 was below 10 nM. In the case of `COCCO[C@@H]1C[C@H]2COc3nc4c(cnn4cc3OC)-c3cc(cc(OC)c3)NCCN2C1=O` (racemic) [Example 117, (12R,14S)-4,18-dimethoxy-12-(2-methoxyethoxy)-16-oxa-7,10,20,21,24-pentaazapentacyclo[15.5.2.1^2,6.0^10,^14.0^20,^23]pentacosa-1(23),2,4,6(25),17(24),18,21-heptaen-11-one], the IC50 is below 10 nM. In the case of `CO[C@@H]1CC2(C)COc3ccn4ncc(c4n3)-c3cc(F)cc(c3)NCCN2C1=O` (single isomer, unassigned) [Example 86], the half-inhibitory concentration (IC50) is below 10 nM. In the case of `CO[C@@H]1C[C@H]2COc3nc4c(cnn4cc3C)-c3cc(CO)cc(c3)NCCN2C1=O` [Example 64, (12R,14S)-4-(hydroxymethyl)-12-methoxy-18-methyl-16-oxa-7,10,20,21,24-pentaazapentacyclo[15.5.2.1^2,6.0^1°,^14.0^2°,^23]pentacosa-1(23),2,4,6(25),17(24),18,21-heptaen-11-one] it was 10 to 100 nM.

In the case of `COc1cc2cc(c1)-c1cnn3ccc(nc13)OC[C@@H]1C[C@@H](OCC3CCO3)C(=O)N1CCN2` (stereo partly drawn) [Example 120, (12R,14S)-4-methoxy-12-(oxetan-2-ylmethoxy)-16-oxa-7,10,20,21,24-pentaazapentacyclo[15.5.2.1^2,6.0^1°,^14.0^2°,^23]pentacosa-1(23),2,4,6(25),17(24),18,21-heptaen-11-one], the IC50 was below 10 nM.

Turning to `COc1cc2cc(c1)-c1cnn3cc(OC)c(nc13)OC[C@@H]1C[C@@H](OCC3COC3)C(=O)N1CCN2` [Example 134, (12R,14S)-4,18-dimethoxy-12-(oxetan-3-ylmethoxy)-16-oxa-7,10,20,21,24-pentaazapentacyclo[15.5.2. 1^2,6.0^10,^14.0^20,^23]pentacosa-1(23),2,4,6(25),17(24),18, 21-heptaen-11-one], the IC50 was below 10 nM.

As to `CCO[C@@H]1C[C@H]2COc3ccn4ncc(c4n3)-c3cc(cc(OC)c3)NCCN2C1=O` [Example 6, (12R,14S)-12-ethoxy-4-methoxy-16-oxa-7,10,20,21,24-pentaazapentacyclo[15.5.2.1^2,6.0^10,^14.0^20,^23]pentacosa-1(23),2,4,6(25),17(24),18,21-heptaen-11-one], the IC50 was below 10 nM.

`CCc1cc2cc(c1)-c1cnn3ccc(nc13)OC[C@@H]1C[C@@H](OC)C(=O)N1CCN2` [Example 21, (12R,14S)-4-ethyl-12-methoxy-16-oxa-7,10,20,21,24-pentaazapentacyclo[15.5.2.1^2,6.0^10,^14.0^20,^23]pentacosa-1(23),2,4,6(25),17(24),18,21-heptaen-11-one]: the IC50 was 10 to 100 nM. In the case of `COc1cc2cc(c1)-c1cnn3cc(C)c(nc13)OC[C@@H]1C[C@@H](OC)C(=O)N1CCN2` [Example 19, (12R,14S)-4,12-dimethoxy-18-methyl-16-oxa-7,10,20,21,24-pentaazapentacyclo[15.5.2.1^2,6.0^10,^14.0^20,^23]pentacosa-1(23),2(25),3,5,17(24),18,21-heptaen-11-one] it was below 10 nM; in that of `CO[C@@H]1C[C@H]2COc3nc4c(cnn4cc3C)-c3cc(cc(OCC4CCOC4)c3)NCCN2C1=O` (stereo partly drawn) [Example 50, (12R,14S)-12-methoxy-18-methyl-4-(oxolan-3-ylmethoxy)-16-oxa-7,10,20,21,24-pentaazapentacyclo[15.5.2.1^2,6.0^10,^14.0^20,^23]pentacosa-1(23),2,4,6(25),17(24),18,21-heptaen-11-one], 10 to 100 nM. Take `COCC#Cc1cc2cc(c1)-c1cnn3ccc(nc13)OC[C@@H]1C[C@@H](OCCOC)C(=O)N1CCN2` [Example 100, (12R,14S)-12-(2-methoxyethoxy)-4-(3-methoxyprop-1-yn-1-yl)-16-oxa-7,10,20,21,24-pentaazapentacyclo[15.5.2.1^2,6.0^1°,^14.0^2°,^23]pentacosa-1(23),2(25),3,5,17(24),18,21-heptaen-11-one]: the IC50 fell in the range of 10 to 100 nM. In the case of `CCO[C@@H]1C[C@H]2COc3ccn4ncc(c4n3)-c3cc(F)cc(c3)NCCN2C1=O` [Example 17, (12R,14S)-12-ethoxy-4-fluoro-16-oxa-7,10,20,21,24-pentaazapentacyclo[15.5.2.1^2,6.0^10,^14.0^20,^23]pentacosa-1(23),2,4,6(25),17(24),18,21-heptaen-11-one] it was below 10 nM. Then `CO[C@@H]1C[C@H]2COc3nc4c(cnn4cc3C)-c3cc(cc(OCc4cccnc4)c3)NCCN2C1=O` [Example 49, (12R,14S)-12-methoxy-18-methyl-4-(pyridin-3-ylmethoxy)-16-oxa-7,10,20,21,24-pentaazapentacyclo[15.5.2.1^2,6.0^10,^14.0^20,^23]pentacosa-1(23),2,4,6(25),17(24),18,21-heptaen-11-one], with 10 to 100 nM; and `COCCO[C@@H]1C[C@H]2COc3nc4c(cnn4cc3OCCN(C)C)-c3cc(cc(OC)c3)NCCN2C1=O` [Example 126, (12R,14S)-18-[2-(dimethylamino)ethoxy]-4-methoxy-12-(2-methoxyethoxy)-16-oxa-7,10,20,21,24-pentaazapentacyclo[15.5.2. 1^2,6.0^10,^14.0^20,^23]pentacosa-1(23),2,4,6(25),17(24),18,21-heptaen-11-one], with below 10 nM. For the compound `CCO[C@@H]1C[C@H]2COc3nc4c(cnn4cc3C)-c3cc(F)cc(c3)NCCN2C1=O` [Example 18, (12R,14S)-12-ethoxy-4-fluoro-18-methyl-16-oxa-7,10,20,21,24-pentaazapentacyclo[15.5.2.1^2,6.0^10,^14.0^20,^23]pentacosa-1(23),2,4,6(25),17(24),18,21-heptaen-11-one], the IC50 was below 10 nM. Turning to `[2H]C([2H])([2H])Oc1cc2cc(c1)-c1cnn3ccc(nc13)OC[C@@H]1C[C@@H](OCCOC)C(=O)N1CCN2` (racemic) [Example 95, (12R,14S)-4-(^2H3)methoxy-12-(2-methoxyethoxy)-16-oxa-7,10,20,21,24-pentaazapentacyclo[15.5.2.1^2,6.0^10,^14.0^20,^23]pentacosa-1(23),2(25),3,5,17(24),18,21-heptaen-11-one], the IC50 is below 10 nM.
